In PMC6000956, “Immunomodulatory activities of pixatimod: emerging nonclinical and clinical data, and its potential utility in combination with PD-1 inhibitors” (Journal for Immunotherapy of Cancer, 2018):

Tested on: beagle dogs
Test: Previous repeated weekly SC toxicology study in beagle dogs (organ weights)
Format: in vivo
Conditions: weekly SC x5, 2.5, 7.5 and 20 mg/kg
Experimental: Supplementary file 40425_2018_363_MOESM2_ESM.pptx: Additional file 2: Effect of pixatimod dosing on selected organ weights in beagle dogs (IV and SC) and rats (SC). Repeated weekly IV exposure (× 5) of pixatimod increases the relative weights of liver (A) and kidney (B) but not thymus (C) nor spleen (D) in beagle dogs. […] Data shown is for combined sexes. […] Study size, n = 15 for control and 48 mg/kg groups and n = 10 for 3 and 12 mg/kg groups. […] Study size, n = 5 for control and 20 mg/kg groups and n = 3 for 2.5 and 7.5 mg/kg groups. *P < 0.05, **P < 0.01, ***P < 0.001 versus control (Kruskal-Wallis test for the dog study, ANOVA followed by Dunnett’s comparison for the rat study). (PPTX 65 kb)

SMILES: CC(C)CCC[C@@H](C)[C@H]1CC[C@H]2[C@@H]3CC[C@H]4C[C@@H](O[C@@H]5O[C@H](COS(=O)(=O)O)[C@@H](O[C@H]6O[C@H](COS(=O)(=O)O)[C@@H](O[C@H]7O[C@H](COS(=O)(=O)O)[C@@H](O[C@H]8O[C@H](COS(=O)(=O)O)[C@@H](OS(=O)(=O)O)[C@H](OS(=O)(=O)O)[C@H]8OS(=O)(=O)O)[C@H](OS(=O)(=O)O)[C@H]7OS(=O)(=O)O)[C@H](OS(=O)(=O)O)[C@H]6OS(=O)(=O)O)[C@H](OS(=O)(=O)O)[C@H]5OS(=O)(=O)O)CC[C@]4(C)[C@H]3CC[C@]12C [pixatimod]
- spleen weight: no significant effect
